Reference: paper PMC12514245, “Impaired migration and lung invasion of human melanoma by a novel small molecule targeting the transmembrane domain of death receptor p75^NTR” (EMBO Molecular Medicine, 2025)
“And” between values parts separate entries of the source, which are not always exact repeats. Equal entries are not always repeated.

Legend:
p75^NTR TMD P253G = target: T1, p75^NTR TMD P253G (Homo sapiens, UniProt P08138, P253G); experiment: AraTM assay, P253G mutant p75NTR TMD; type: cell-based; settings: for GFP/OD630, Mean / GFP/OD630, individual replicates: P253G
T1 construct: Comparison of wild-type (WT) p75^NTR TMD and I252A, P253G and V254A mutants in the AraTM assay; expressed in transfected cells; host or cells: E. coli AS19 (LPS-negative)

p75^NTR TMD V254A = target: T2, p75^NTR TMD V254A (Homo sapiens, UniProt P08138, V254A); experiment: AraTM assay, V254A mutant p75NTR TMD; type: cell-based; settings: for GFP/OD630, Mean / GFP/OD630, individual replicates: V254A;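 as to GFP/OD630, Mean: normalised to the no-drug GFP/OD630 signal set at 100%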;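 as to GFP/OD630, individual replicates: normalised to the no-drug GFP/OD630 signal set at 100%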
T2 construct: Comparison of wild-type (WT) p75^NTR TMD and I252A, P253G and V254A mutants in the AraTM assay; expressed in transfected cells; host or cells: E. coli AS19 (LPS-negative)
T2 sequence (P08138 250-275 V254A): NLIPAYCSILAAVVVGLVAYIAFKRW

A875 melanoma cells (NT) = experiment: Cleaved PARP western blot (apoptosis), A875 NT; type: cell-based, human
Description: One of the main biological readouts of p75^NTR activity in response to neurotrophins is the induction of caspase-mediated apoptotic cell death (Underwood and Coulson, [2008]; Friedman, [2010]; Ibáñez and Simi, [2012]).
COS7, A875 and WM115 cell lines were cultured under standard conditions in DMEM supplemented with 10% fetal calf serum, 100 units/ml penicillin, […] streptomycin, and 2.5 mM glutamine. All cells were authenticated and tested for mycoplasma contamination. A875-NT (control) and A875 shp75 (knockdown) cell lines were described previously (Goh et al, [2018]).

A875 shp75 cells = experiment: Wound healing cell motility assay, A875 shp75; type: cell-based, human; settings: A875 shp75, 1uM
Description: For wound healing assay, cells were grown until confluency and subjected to a wound across the cell mono-layer. Cells were then incubated with serum-free media either with DMSO or a small molecule (with or without 5 µM Q_VD_poH) and imaged at specific time-points. Cell migration is reflected as fold change in wound area over time.

T1 sequence (P08138 251-272 P253G limits assumed): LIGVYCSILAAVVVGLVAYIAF

## Cc1cccc(-c2cncc(Nc3ccc(Br)c(Cl)c3Cl)n2)c1C [Np75-4A22]
p75^NTR TMD P253G
  effect of Pro253 mutation on compound activity in AraTM assay: unaffected
p75^NTR TMD P253G; compound 5 μM
  GFP/OD630, Mean: 0.71
  GFP/OD630, individual replicates: 0.58 and 0.64 and 0.9
p75^NTR TMD P253G; compound 10 μM
  GFP/OD630, Mean: 0.74
  GFP/OD630, individual replicates: 0.6 and 0.87 and 0.74
p75^NTR TMD P253G; compound 20 μM
  GFP/OD630, Mean: 0.58
  GFP/OD630, individual replicates: 0.43 and 0.66 (2×)
p75^NTR TMD P253G; compound 30 μM
  GFP/OD630, Mean: 0.52
  GFP/OD630, individual replicates: 0.72 and 0.32 and 0.53
p75^NTR TMD P253G; compound 40 μM
  GFP/OD630, Mean: 0.39
  GFP/OD630, individual replicates: 0.36 (2×) and 0.44
p75^NTR TMD V254A
  effect of Val254 mutation on compound activity in AraTM assay: unaffected
p75^NTR TMD V254A; compound 5 μM
  GFP/OD630, Mean: 0.83
  GFP/OD630, individual replicates: 0.98 and 0.74 and 0.77
p75^NTR TMD V254A; compound 10 μM
  GFP/OD630, Mean: 0.64
  GFP/OD630, individual replicates: 0.63 (2×) and 0.65
p75^NTR TMD V254A; compound 20 μM
  GFP/OD630, Mean: 0.61
  GFP/OD630, individual replicates: 0.46 and 0.62 and 0.74
p75^NTR TMD V254A; compound 30 μM
  GFP/OD630, Mean: 0.47
  GFP/OD630, individual replicates: 0.41 and 0.51 and 0.50
p75^NTR TMD V254A; compound 40 μM
  GFP/OD630, Mean: 0.54
  GFP/OD630, individual replicates: 0.57 and 0.51 and 0.53
A875 melanoma cells (NT); 0.5uM
  Cleaved PARP normalized to DMSO, individual replicates: 5.004 and 2.098 and 0.920
  Cleaved PARP/actin, individual replicates: 0.036 and 0.018 and 0.00739
A875 melanoma cells (NT); 0.5μM
  Cleaved PARP normalized to DMSO, Average: 2.674
A875 melanoma cells (NT); 1uM
  Cleaved PARP normalized to DMSO, individual replicates: 1.063 and 1.446 and 0.643
  Cleaved PARP/actin, individual replicates: 0.008 and 0.012 and 0.005
A875 melanoma cells (NT); 1μM
  Cleaved PARP normalized to DMSO, Average: 1.051
A875 melanoma cells (NT); 2uM
  Cleaved PARP normalized to DMSO, individual replicates: 0.550 and 3.611 and 2.270
  Cleaved PARP/actin, individual replicates: 0.004 and 0.031 and 0.018
A875 melanoma cells (NT); 2μM
  Cleaved PARP normalized to DMSO, Average: 2.144
A875 melanoma cells (NT); 5uM
  Cleaved PARP normalized to DMSO, individual replicates: 1.726 and 2.128 and 2.224
  Cleaved PARP/actin, individual replicates: 0.013 and 0.018
A875 melanoma cells (NT); 5μM
  Cleaved PARP normalized to DMSO, Average: 2.026
A875 melanoma cells (NT); submicromolar and low micromolar range (0.5 to 5 µM)
  apoptosis (PARP cleavage): did not induce apoptosis
A875 shp75 cells; 0 h, Mean
  Wound area (Fold): 1.000 Fold
A875 shp75 cells; 0 h, n1
  Wound area (Fold): 0.845 Fold
A875 shp75 cells; 0 h, n2
  Wound area (Fold): 1.081 Fold
A875 shp75 cells; 0 h, n3
  Wound area (Fold): 1.074 Fold
A875 shp75 cells; 3 h, Mean
  Wound area (Fold): 0.931 Fold
A875 shp75 cells; 3 h, n1
  Wound area (Fold): 0.916 Fold
A875 shp75 cells; 3 h, n2
  Wound area (Fold): 0.940 Fold
A875 shp75 cells; 3 h, n3
  Wound area (Fold): 0.936 Fold
A875 shp75 cells; 6 h, Mean
  Wound area (Fold): 0.862 Fold
A875 shp75 cells; 6 h, n1
  Wound area (Fold): 0.849 Fold
A875 shp75 cells; 6 h, n2
  Wound area (Fold): 0.873 Fold
A875 shp75 cells; 6 h, n3
  Wound area (Fold): 0.864 Fold
A875 shp75 cells; 9 h, Mean
  Wound area (Fold): 0.807 Fold
A875 shp75 cells; 9 h, n1
  Wound area (Fold): 0.787 Fold
A875 shp75 cells; 9 h, n2
  Wound area (Fold): 0.829 Fold
A875 shp75 cells; 9 h, n3
  Wound area (Fold): 0.805 Fold
A875 shp75 cells; 12 h, Mean
  Wound area (Fold): 0.763 Fold
A875 shp75 cells; 12 h, n1
  Wound area (Fold): 0.742 Fold
